# According to ChEMBL document CHEMBL3132797, “Synthesis and biological evaluation of substituted N-alkylphenyl-3,5-dinitrobenzamide analogs as anti-TB agents” (Medchemcomm, 2014):
# Experiments:
# Assay type in all cases: functional
# [1] = tested on: Mycobacterium tuberculosis; assay: Antimycobacterial activity against rifampicin-resistant Mycobacterium tuberculosis clinical isolates by broth dilution method
# [2] = tested on: Mycobacterium tuberculosis; assay: Antimycobacterial activity against isoniazid-resistant Mycobacterium tuberculosis clinical isolates by broth dilution method
# [3] = tested on: Mycobacterium tuberculosis; assay: Antimycobacterial activity against multidrug-resistant Mycobacterium tuberculosis clinical isolates by broth dilution method
SMILES,MIC [1],MIC [2],MIC [3]
CC(C)c1ccc(NC(=O)c2cc([N+](=O)[O-])cc([N+](=O)[O-])c2)cc1,48.6 µM,–,–
COc1ccc(CCNC(=O)c2cc([N+](=O)[O-])cc([N+](=O)[O-])c2)cc1,< 0.17 µM,–,–
Cc1c([N+](=O)[O-])cc(C(=O)N[C@@H](C)c2ccc(F)cc2)cc1[N+](=O)[O-],< 0.04 µM,0.72 µM,0.72 µM
Cc1ccc([C@@H](C)NC(=O)c2cc([N+](=O)[O-])c(C)c([N+](=O)[O-])c2)cc1,< 0.04 µM,0.35 µM,0.35 µM
Cc1c([N+](=O)[O-])cc(C(=O)NCc2ccccc2)cc1[N+](=O)[O-],3.17 µM,–,–
O=C(Nc1ccc(F)cc1)c1cc([N+](=O)[O-])cc([N+](=O)[O-])c1,13 µM,–,–
CO[C@H]1/C=C/O[C@@]2(C)Oc3c(C)c(O)c4c(O)c(c(/C=N/N5CCN(C)CC5)c(O)c4c3C2=O)NC(=O)/C(C)=C\C=C\[C@H](C)[C@H](O)[C@@H](C)[C@@H](O)[C@@H](C)[C@H](OC(C)=O)[C@@H]1C [RIFAMPIN],256 µM,–,64 µM
N#Cc1ccccc1NC(=O)c1cc([N+](=O)[O-])cc([N+](=O)[O-])c1,3.2 µM,–,–
O=C(Nc1cc(Cl)cc(Cl)c1)c1cc([N+](=O)[O-])cc([N+](=O)[O-])c1,45.1 µM,–,–
CC[C@@H](CO)NCCN[C@@H](CC)CO [ETHAMBUTOL],–,–,16 µM
NNC(=O)c1ccncc1 [ISONIAZID],–,64 µM,16 µM
O=C(NC1CCCC1)c1cc([N+](=O)[O-])cc([N+](=O)[O-])c1,0.9 µM,–,–
C[C@@H](NC(=O)c1cc([N+](=O)[O-])cc([N+](=O)[O-])c1)c1ccccc1,< 0.047 µM,0.79 µM,12.7 µM
Cc1ccc([C@@H](C)NC(=O)c2cc([N+](=O)[O-])cc([N+](=O)[O-])c2)cc1,< 0.05 µM,< 0.05 µM,12.2 µM
Cc1ccc(C(C)NC(=O)c2cc([N+](=O)[O-])c(C)c([N+](=O)[O-])c2)cc1 (racemic),< 0.17 µM,–,–
O=C(NCCc1ccccc1)c1cc([N+](=O)[O-])cc([N+](=O)[O-])c1,< 0.19 µM,0.795 µM,> 12.7 µM
CCCCC(CC)CNC(=O)c1cc([N+](=O)[O-])cc([N+](=O)[O-])c1 (stereo not drawn),< 0.19 µM,–,–
O=C(Nc1ccccc1F)c1cc([N+](=O)[O-])cc([N+](=O)[O-])c1,13 µM,–,–
Cc1c([N+](=O)[O-])cc(C(=O)N[C@H](C)c2ccc(F)cc2)cc1[N+](=O)[O-],11.5 µM,11.5 µM,5.76 µM
